Data on three molecules can be found in ChEMBL document CHEMBL5653631, “A Potent and Selective ULK1 Inhibitor Suppresses Autophagy and Sensitizes Cancer Cells to Nutrient Stress” (iScience, 2018).

Assay [1] has as its target Mitogen-activated protein kinase 11 (Homo sapiens) (UniProt Q15759). Put plainly: Inhibition of human recombinant p38beta at 40 nM related to control ULK1.
Assay [2] deals with T1, Serine/threonine-protein kinase Sgk2 (Homo sapiens) (UniProt Q9HBY8).
T1 sequence (whole entry): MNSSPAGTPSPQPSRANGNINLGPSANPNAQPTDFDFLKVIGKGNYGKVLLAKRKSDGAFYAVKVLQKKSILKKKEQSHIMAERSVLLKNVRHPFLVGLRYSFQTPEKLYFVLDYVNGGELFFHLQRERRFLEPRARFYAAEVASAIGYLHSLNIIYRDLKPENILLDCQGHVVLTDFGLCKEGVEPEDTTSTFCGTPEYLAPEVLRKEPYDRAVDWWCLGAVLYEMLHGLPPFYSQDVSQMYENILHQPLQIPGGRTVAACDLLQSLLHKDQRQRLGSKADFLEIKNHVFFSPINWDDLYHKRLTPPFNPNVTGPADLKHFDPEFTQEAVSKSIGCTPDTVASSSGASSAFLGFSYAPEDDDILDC
Put plainly: Inhibition of human recombinant SGK2 at 40 nM related to control ULK1.

For assay [3], the species on record is Homo sapiens. Kind of assay: Inhibition of human recombinant CK1d at 40 nM in presence of ATP by radiometric assay relative to control.
Assay [4] deals with Myosin light chain kinase, smooth muscle (Homo sapiens) (UniProt Q15746). Kind of assay: Inhibition of human recombinant smMLCK at 500 nM related to control ULK1.
Assay [5] addresses T2, Serine/threonine-protein kinase STK11 (Homo sapiens) (UniProt Q15831).
T2 sequence (whole entry): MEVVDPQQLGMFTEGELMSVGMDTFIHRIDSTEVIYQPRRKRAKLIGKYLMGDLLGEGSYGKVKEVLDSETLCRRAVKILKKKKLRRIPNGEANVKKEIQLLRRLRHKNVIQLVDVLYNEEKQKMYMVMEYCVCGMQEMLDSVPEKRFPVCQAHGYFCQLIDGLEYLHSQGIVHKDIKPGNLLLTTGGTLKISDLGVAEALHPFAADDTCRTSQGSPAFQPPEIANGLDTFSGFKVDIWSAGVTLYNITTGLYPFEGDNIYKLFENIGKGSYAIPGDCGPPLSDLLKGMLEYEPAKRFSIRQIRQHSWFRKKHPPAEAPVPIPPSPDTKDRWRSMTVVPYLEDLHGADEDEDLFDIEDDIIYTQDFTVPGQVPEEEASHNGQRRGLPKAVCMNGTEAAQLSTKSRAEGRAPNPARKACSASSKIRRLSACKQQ
Put plainly: Inhibition of human recombinant LKB1 at 500 nM related to control ULK1.

Assay [6] has as its target Mitogen-activated protein kinase 14 (Homo sapiens) (UniProt Q16539). Kind of assay: Inhibition of human recombinant p38alpha at 15 nM related to control ULK1.
The target in assay [7] is T3, Mitogen-activated protein kinase kinase kinase 7 (Homo sapiens) (UniProt O43318).
T3 sequence (whole entry): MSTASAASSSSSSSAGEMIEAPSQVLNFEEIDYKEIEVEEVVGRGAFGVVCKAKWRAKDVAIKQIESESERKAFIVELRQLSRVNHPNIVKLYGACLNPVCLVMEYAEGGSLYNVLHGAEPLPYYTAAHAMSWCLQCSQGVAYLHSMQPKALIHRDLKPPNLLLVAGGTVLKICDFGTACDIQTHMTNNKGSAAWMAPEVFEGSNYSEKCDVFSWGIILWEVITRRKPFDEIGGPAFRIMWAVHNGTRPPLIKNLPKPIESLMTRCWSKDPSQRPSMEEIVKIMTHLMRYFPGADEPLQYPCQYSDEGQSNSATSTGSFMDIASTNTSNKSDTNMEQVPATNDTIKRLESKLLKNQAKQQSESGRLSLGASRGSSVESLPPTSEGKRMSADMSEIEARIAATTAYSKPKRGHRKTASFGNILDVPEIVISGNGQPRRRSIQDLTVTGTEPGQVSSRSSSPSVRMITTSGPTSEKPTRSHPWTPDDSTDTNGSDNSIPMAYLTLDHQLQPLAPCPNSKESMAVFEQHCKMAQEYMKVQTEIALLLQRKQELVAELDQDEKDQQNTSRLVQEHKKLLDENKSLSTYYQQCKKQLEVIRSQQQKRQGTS
Kind of assay: Inhibition of human recombinant TAK1 at 15 nM in presence of ATP by radiometric assay relative to control.

The target of assay [8] is eIF-2-alpha kinase GCN2 (Homo sapiens) (UniProt Q9P2K8). Put plainly: Inhibition of human recombinant GCN2 at 15 nM in presence of ATP by radiometric assay relative to control.
For assay [9], the target named is T4, Interleukin-1 receptor-associated kinase 4 (Homo sapiens) (UniProt Q9NWZ3).
T4 sequence (whole entry): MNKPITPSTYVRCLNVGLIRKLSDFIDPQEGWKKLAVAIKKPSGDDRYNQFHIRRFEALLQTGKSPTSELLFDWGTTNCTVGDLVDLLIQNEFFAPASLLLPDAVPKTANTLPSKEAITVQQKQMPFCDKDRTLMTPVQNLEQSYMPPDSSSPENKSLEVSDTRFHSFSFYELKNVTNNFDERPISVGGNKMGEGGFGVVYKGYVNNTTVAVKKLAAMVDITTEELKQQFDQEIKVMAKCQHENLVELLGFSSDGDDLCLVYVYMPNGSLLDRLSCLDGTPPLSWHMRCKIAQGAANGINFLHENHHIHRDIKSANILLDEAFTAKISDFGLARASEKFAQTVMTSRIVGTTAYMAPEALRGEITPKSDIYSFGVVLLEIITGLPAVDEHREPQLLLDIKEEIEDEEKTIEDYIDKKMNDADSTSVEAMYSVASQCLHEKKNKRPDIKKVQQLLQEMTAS
Kind of assay: Inhibition of human recombinant IRAK4 at 15 nM in presence of ATP by radiometric assay relative to control.

The target in assay [10] is Ribosomal protein S6 kinase alpha-5 (Homo sapiens) (UniProt O75582). Put plainly: Inhibition of human recombinant MSK1 at 15 nM related to control ULK1.
Assay [11] deals with T5, MAP kinase-activated protein kinase 5 (Homo sapiens) (UniProt Q8IW41).
T5 sequence (whole entry): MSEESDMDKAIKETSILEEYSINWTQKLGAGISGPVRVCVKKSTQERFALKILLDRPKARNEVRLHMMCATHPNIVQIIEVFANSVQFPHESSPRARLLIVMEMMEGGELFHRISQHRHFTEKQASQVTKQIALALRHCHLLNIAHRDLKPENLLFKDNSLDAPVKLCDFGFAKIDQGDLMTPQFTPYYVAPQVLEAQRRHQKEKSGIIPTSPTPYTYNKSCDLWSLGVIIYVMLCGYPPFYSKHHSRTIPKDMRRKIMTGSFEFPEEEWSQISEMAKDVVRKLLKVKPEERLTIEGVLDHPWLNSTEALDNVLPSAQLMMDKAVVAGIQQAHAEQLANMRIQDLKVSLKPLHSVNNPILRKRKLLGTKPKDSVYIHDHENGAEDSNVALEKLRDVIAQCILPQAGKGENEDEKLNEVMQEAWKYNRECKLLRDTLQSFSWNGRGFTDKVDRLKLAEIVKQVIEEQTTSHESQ
Kind of assay: Inhibition of human recombinant MAPKAPK5 at 15 nM in presence of ATP by radiometric assay relative to control.

Chain of eIF-2-alpha kinase GCN2 (Homo sapiens) (Q9P2K8 whole entry): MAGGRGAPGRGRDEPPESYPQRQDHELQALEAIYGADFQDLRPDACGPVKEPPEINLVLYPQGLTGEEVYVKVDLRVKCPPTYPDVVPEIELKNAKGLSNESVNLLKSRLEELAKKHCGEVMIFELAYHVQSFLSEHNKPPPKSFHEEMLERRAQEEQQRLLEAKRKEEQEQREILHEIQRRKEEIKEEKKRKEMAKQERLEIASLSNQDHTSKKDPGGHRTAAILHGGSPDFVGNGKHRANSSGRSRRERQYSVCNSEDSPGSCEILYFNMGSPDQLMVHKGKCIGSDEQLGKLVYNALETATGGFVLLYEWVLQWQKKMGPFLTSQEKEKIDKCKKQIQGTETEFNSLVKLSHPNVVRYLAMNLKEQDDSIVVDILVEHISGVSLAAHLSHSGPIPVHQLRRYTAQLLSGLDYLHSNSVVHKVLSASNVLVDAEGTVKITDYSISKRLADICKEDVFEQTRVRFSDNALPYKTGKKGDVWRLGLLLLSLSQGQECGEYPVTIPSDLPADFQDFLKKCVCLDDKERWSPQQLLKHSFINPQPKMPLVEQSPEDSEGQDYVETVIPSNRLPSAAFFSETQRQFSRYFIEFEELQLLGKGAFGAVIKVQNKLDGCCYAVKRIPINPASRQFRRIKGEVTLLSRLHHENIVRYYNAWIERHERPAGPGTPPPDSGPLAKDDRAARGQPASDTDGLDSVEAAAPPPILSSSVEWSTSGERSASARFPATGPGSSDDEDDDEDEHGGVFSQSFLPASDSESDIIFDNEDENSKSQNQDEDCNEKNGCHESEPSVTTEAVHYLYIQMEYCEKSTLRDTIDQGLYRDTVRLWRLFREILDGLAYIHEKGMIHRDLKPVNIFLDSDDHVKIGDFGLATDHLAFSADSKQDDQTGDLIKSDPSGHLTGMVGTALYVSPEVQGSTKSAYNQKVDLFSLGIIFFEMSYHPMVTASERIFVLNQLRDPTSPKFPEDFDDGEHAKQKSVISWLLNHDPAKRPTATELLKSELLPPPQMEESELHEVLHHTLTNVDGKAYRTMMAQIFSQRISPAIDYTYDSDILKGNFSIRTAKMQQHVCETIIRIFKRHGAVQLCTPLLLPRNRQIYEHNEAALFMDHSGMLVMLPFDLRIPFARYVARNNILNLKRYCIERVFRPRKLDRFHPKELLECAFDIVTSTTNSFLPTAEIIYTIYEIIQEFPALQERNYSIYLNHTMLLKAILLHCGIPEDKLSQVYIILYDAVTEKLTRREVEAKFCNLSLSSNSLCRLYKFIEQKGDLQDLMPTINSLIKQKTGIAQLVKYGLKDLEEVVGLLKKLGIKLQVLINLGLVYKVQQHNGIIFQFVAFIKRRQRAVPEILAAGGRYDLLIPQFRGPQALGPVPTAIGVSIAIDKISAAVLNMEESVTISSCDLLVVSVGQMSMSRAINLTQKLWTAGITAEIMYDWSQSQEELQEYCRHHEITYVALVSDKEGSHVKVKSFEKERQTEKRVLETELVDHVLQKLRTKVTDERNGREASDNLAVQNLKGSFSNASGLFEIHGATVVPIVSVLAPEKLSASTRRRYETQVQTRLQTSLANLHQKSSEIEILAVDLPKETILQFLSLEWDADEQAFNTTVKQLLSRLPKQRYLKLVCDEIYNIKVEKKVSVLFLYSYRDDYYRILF
Chain of Myosin light chain kinase, smooth muscle (Homo sapiens) (Q15746 whole entry): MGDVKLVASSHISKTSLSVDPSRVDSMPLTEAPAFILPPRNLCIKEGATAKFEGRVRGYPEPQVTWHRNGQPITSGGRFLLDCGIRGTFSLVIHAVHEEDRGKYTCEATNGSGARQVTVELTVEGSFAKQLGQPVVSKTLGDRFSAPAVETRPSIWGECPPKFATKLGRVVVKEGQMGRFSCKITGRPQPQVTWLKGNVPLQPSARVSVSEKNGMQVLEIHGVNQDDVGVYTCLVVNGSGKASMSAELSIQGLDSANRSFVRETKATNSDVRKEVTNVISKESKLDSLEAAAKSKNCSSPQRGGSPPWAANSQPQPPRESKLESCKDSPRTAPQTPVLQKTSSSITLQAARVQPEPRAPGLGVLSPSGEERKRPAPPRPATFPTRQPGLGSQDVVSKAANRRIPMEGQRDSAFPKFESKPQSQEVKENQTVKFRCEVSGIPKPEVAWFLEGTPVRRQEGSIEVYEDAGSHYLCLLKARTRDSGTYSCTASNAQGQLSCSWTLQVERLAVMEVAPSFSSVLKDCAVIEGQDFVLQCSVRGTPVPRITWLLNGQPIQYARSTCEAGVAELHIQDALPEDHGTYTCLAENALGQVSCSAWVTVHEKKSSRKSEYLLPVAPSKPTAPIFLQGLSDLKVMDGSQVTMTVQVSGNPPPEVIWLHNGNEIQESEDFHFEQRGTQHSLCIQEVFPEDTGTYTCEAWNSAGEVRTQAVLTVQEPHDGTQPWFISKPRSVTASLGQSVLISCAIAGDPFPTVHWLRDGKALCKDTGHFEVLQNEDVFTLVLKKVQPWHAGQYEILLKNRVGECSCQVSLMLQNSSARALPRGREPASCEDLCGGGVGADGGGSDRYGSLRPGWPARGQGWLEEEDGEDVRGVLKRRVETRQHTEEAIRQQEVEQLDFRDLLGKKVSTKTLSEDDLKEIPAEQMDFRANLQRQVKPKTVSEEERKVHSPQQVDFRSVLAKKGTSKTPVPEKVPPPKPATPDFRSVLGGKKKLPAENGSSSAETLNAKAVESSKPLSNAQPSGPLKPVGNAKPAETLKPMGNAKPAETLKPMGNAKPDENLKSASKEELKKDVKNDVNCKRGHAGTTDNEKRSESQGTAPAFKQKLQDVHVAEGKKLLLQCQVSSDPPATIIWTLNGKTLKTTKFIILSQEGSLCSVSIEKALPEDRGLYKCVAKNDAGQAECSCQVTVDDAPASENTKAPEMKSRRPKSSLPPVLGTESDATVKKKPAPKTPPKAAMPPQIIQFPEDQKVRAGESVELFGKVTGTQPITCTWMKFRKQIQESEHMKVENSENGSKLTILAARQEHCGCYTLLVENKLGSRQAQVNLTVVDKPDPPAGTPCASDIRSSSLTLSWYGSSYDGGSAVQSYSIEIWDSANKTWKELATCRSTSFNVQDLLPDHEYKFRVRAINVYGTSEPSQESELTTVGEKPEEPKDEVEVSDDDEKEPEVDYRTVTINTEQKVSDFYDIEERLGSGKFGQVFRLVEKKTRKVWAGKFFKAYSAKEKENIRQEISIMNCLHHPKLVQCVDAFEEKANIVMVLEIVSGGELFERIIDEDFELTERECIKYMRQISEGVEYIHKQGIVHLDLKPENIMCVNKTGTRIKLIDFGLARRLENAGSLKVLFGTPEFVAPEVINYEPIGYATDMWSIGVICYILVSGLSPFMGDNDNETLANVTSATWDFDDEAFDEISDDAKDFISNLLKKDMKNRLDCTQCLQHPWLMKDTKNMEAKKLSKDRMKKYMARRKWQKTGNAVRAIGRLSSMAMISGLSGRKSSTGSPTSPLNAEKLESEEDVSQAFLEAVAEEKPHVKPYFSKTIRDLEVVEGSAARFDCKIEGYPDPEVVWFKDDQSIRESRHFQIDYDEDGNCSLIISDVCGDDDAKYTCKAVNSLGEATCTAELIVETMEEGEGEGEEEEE
Chain of Ribosomal protein S6 kinase alpha-5 (Homo sapiens) (O75582 whole entry, looked up): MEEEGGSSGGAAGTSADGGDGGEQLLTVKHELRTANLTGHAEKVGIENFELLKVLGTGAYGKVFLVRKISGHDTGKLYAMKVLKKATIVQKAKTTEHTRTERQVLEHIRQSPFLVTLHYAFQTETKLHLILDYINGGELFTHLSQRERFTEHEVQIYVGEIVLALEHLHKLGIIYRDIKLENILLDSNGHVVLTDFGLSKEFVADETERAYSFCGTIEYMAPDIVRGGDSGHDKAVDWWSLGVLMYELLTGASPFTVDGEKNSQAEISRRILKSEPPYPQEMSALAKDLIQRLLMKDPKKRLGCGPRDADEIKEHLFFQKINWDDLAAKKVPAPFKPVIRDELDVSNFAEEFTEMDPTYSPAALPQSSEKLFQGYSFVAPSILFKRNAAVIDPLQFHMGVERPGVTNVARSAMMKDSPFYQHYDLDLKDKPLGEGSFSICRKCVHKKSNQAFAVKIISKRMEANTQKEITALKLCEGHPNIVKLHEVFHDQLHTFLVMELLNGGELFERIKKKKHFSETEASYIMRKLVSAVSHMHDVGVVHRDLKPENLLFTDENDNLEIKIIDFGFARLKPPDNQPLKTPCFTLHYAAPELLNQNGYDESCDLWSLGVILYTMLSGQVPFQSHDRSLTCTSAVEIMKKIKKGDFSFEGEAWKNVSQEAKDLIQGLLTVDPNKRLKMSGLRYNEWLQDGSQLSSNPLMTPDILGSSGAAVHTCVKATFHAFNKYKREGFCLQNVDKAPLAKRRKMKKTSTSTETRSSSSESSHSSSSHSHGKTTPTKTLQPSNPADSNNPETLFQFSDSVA
Chain of Mitogen-activated protein kinase 11 (Homo sapiens) (Q15759 whole entry): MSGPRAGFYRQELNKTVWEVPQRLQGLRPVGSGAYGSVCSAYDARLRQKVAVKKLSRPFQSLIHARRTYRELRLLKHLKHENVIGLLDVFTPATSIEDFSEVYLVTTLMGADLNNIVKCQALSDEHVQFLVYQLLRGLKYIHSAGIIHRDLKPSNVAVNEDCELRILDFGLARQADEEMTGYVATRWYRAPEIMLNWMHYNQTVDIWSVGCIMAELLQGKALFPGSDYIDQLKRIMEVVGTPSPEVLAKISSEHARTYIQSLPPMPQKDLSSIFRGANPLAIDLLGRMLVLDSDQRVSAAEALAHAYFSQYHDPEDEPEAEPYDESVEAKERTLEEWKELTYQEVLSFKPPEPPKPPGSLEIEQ
Chain of Mitogen-activated protein kinase 14 (Homo sapiens) (Q16539 whole entry): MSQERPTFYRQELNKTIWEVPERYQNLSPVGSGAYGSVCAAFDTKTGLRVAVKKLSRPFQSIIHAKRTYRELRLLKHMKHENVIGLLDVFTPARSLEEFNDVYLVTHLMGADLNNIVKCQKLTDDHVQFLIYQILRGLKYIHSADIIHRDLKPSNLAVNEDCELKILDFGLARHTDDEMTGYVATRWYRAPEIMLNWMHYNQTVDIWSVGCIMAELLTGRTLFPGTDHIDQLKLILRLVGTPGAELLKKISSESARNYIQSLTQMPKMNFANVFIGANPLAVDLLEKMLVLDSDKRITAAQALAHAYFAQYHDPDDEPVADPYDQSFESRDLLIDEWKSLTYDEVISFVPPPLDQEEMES

With `O=C(N[C@@H](C1CC1)C(F)(F)F)c1cc(-c2cnn3cc(-c4ccc(F)cc4)cnc23)cs1`, the fold change (FC) in [1] came out at 0.14; in assay [2] it was 0.16. Besides, the inhibition in assay [3] is 3%.

As to `CNC(=O)c1ccccc1Oc1nc(Nc2cc(OC)c(OC)c(OC)c2)ncc1Br`, the fold change (FC) worked out at 0.07 in assay [4] and 0.16 in [5].

For the molecule `CC(C)[C@H](NC(=O)c1cc(-c2cnn3cc(-c4ccc(OCCN5CCCCC5)cc4)cnc23)cs1)C(F)(F)F`, the fold change (FC) turned out to be 0.06 in assay [6] and 0.02 in assay [10]. Besides, the inhibition in [7] is 1%; in assay [8], 8%; in assay [9], 0%; in assay [11], 0%.
